Consider twelve molecules from ChEMBL document CHEMBL5370688, “Development of HC-258, a Covalent Acrylamide TEAD Inhibitor That Reduces Gene Expression and Cell Migration” (ACS Med Chem Lett, 2023).

For assay [1], the target named is Transcriptional enhancer factor TEF-3 (Homo sapiens) (UniProt Q15561). Briefly: Binding affinity to TEAD4 (unknown origin) assessed as covalent adduct formation at 0.3 mM incubated for 2 hrs by Agilent LC/MSD Time-of-Flight Mass Spectrometric analysis.
In assay [2] the test system is MDA-MB-231. Briefly: Inhibition of TEAD in human MDA-MB-231 cells assessed as reduction in CTGF gene expression level at 10 uM measured after 48 hrs by SYBR green staining based RT-qPCR analysis. The format is cell-based.
Assay [3] concerns the target Transcriptional enhancer factor TEF-3 (Homo sapiens) (UniProt Q15561). The assay is described as follows: Displacement of bodipy-PA from TEAD4 (unknown origin) measured after 30 mins by FP assay.
Assay [4] concerns MDA-MB-231. Briefly: Inhibition of TEAD in human MDA-MB-231 cells assessed as reduction in AXL gene expression level at 10 uM measured after 48 hrs by SYBR green staining based RT-qPCR analysis. The class given is cell-based.
Assay [5] deals with MDA-MB-231. The assay is described as follows: Inhibition of TEAD in human MDA-MB-231 cells assessed as reduction in Cyr61 gene expression level at 10 uM measured after 48 hrs by SYBR green staining based RT-qPCR analysis. The class given is cell-based. (In general: Real-time PCR tracks product formation cycle by cycle.)
The test system of assay [6] is MDA-MB-231. Briefly: Inhibition of TEAD in human MDA-MB-231 cells assessed as reduction in NF2 gene expression level at 10 uM measured after 48 hrs by SYBR green staining based RT-qPCR analysis. The class given is cell-based.
The test system of assay [7] is MDA-MB-231. Briefly: Cytotoxicity against human MDA-MB-231 cells at 10 uM. The class given is functional, cell-based.
The target of assay [8] is Transcriptional enhancer factor TEF-3 (Homo sapiens) (UniProt Q15561). The assay is described as follows: Binding affinity to TEAD4 (unknown origin) assessed as partial covalent adduct formation at 0.3 mM incubated for 2 hrs by Agilent LC/MSD Time-of-Flight Mass Spectrometric analysis.
For assay [9], the system named is MDA-MB-231. Briefly: Inhibition of cell migration in human MDA-MB-231 cells at 10 uM incubated for 48 hrs by xCELLigence RTCA system analysis. The class given is functional, cell-based.
In assay [10] the test system is YAP1-TEAD1 (Homo sapiens). The assay is described as follows: Inhibition of C-terminal NanoLuc-tagged TEAD1 (unknown origin)/C-terminal Halo-Tagged YAP1 (unknown origin) protein-protein interaction transfected in HEK293T cells at 10 uM using Nano-Glo as substrate pre incubated for 4 hrs followed by substrate addition and measured within 10 mins by NanoBRET …. The following applies: time 250.0 min.

For assay [11], the target named is Transcriptional enhancer factor TEF-3 (Homo sapiens) (UniProt Q15561). The assay is described as follows: Displacement of bodipy-PA from TEAD4 (unknown origin) measured after 30 mins by FP assay relative to control.
Assay [12] has the same target. The assay is described as follows: Binding affinity to TEAD4 (unknown origin) assessed as change in aggregation temperature at 25 uM by DSLS thermal shift assay.

SMILES strings stand for the structures. The source made the active and inactive calls. The calls are words filed in the database; no cut-off is given here.

Chain of Transcriptional enhancer factor TEF-3 (Homo sapiens) (Q15561 whole entry): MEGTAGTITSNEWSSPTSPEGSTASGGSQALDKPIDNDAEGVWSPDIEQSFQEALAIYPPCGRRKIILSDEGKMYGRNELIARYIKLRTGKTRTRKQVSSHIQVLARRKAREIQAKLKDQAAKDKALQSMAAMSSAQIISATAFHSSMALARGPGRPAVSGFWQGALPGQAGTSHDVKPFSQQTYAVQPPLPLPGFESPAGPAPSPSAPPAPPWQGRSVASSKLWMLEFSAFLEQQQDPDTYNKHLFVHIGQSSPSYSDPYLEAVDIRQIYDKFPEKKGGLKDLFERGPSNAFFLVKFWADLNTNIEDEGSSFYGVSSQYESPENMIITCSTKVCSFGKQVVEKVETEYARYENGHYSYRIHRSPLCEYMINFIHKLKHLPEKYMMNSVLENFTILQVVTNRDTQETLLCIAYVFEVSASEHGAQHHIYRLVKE

`CCCCCCc1cccc(Nc2cccc(NC(=O)C=C(C)C)c2)c1`: the result in assay [1] was inactive.
Take `CCCCCCc1cccc(Nc2cccc(NC(=O)CCl)c2)c1`: the inhibition entry in assay [2] and in [5] was “Active” in each case. Further, the outcome in assay [1] was Active. Also, in [3], the K is 1 µM. Moreover, the inhibition result in assay [4] and in assay [6] was “inactive” each time. In addition, in assay [7], the result was inactive.
Turning to `CCCCCCc1cccc(Nc2ccccc2NC(=O)C=C(C)C)c1`, the result in [1] was inactive.
For `C=CC(=O)Nc1ccccc1Nc1cccc(CCCCCC)c1`, the inhibition entry in [2], in [4], in assay [5] and in assay [6] was “Active” in each case. For the same molecule, the outcome in [8] and in [7] was Active. Further, the K in [3] amounted to 2.7 µM.
As for `C=CC(=O)Nc1cccc(Nc2cccc(OCCCCC)c2)c1`, the inhibition result in assay [2], in assay [4], in assay [5], in assay [6] and in [9] was “Active” throughout. Also, the outcome in assay [1] was Active. In addition, in [3], the K was determined as 3.6 µM. For the same molecule, the result in [7] was inactive. In assay [10], the inhibition (in general, the share of the control response that was lost under treatment) is “inactive”.
In the case of `CCCCCCc1cccc(Nc2ccccc2NC(=O)CCl)c1`, the outcome in [1] was Active. Besides, the inhibition in assay [11] worked out at 80%. Further, the K in assay [3] was found to be 2.3 µM.
For the molecule `CCCCCCc1cccc(Nc2cccc(NC(=O)C3CC3)c2)c1`, in assay [1], the outcome was inactive.
For `C=CC(=O)Nc1cccc(Nc2cccc(CCCCCC)c2)c1`, the inhibition result in assay [2], in assay [4], in assay [5] and in assay [6] was “Active” throughout. In addition, the result in assay [1] and in assay [7] was Active. Besides, the K in assay [3] came to 1.3 µM.
Take `C=CC(=O)Nc1ccccc1Nc1cccc(OCCCCC)c1`: the inhibition entry in assay [2], in assay [4], in assay [5], in assay [6] and in assay [9] was “Active” each time. In assay [8], the result was Active. In addition, the K in assay [3] was above 20 µM. Moreover, in assay [7], the result was inactive.
As for `O=C(O)c1ccccc1Nc1cccc(C(F)(F)F)c1`, the inhibition result in assay [9] was “inactive”.
For `CCCCCOc1cccc(Nc2cccc(NC(=O)CCl)c2)c1`, the outcome in assay [1] was Active. In addition, the K in assay [3] was found to be 3.1 µM. For the same molecule, the result in assay [7] was inactive.
For the molecule `CCCCCOc1cccc(Nc2cccc(NC(C)=O)c2)c1`, the deltaT in assay [12] turned out to be 2.5 °C. The inhibition result in [2], in [4], in assay [5], in [6], in assay [9] and in assay [10] was “inactive” in each case. For the same molecule, the outcome in assay [1] and in assay [7] was inactive. In addition, the K in assay [3] was above 25 µM.
